The text below walks through data of BindingDB's records for patent WO2025049746 (Eikon Therapeutics, 2025).

pIC50: −log10 of the molar value.

Assay [1] deals with T1, Bifunctional 3'-5' exonuclease/ATP-dependent helicase WRN [480-1251] (UniProt Q14191).
T1 construct: 480-1251
Nature of the assay: Biochemical Activity Assays.

Assay [2] concerns the target Bifunctional 3'-5' exonuclease/ATP-dependent helicase WRN (Homo sapiens, UniProt Q14191). Nature of the assay: ADP-Glo Kinase Assay. How it is done:
ATPase activity was measured using the ADP-Glo Kinase Assay following the manufacturers recommended protocol.

T1 sequence (Q14191 480-1251): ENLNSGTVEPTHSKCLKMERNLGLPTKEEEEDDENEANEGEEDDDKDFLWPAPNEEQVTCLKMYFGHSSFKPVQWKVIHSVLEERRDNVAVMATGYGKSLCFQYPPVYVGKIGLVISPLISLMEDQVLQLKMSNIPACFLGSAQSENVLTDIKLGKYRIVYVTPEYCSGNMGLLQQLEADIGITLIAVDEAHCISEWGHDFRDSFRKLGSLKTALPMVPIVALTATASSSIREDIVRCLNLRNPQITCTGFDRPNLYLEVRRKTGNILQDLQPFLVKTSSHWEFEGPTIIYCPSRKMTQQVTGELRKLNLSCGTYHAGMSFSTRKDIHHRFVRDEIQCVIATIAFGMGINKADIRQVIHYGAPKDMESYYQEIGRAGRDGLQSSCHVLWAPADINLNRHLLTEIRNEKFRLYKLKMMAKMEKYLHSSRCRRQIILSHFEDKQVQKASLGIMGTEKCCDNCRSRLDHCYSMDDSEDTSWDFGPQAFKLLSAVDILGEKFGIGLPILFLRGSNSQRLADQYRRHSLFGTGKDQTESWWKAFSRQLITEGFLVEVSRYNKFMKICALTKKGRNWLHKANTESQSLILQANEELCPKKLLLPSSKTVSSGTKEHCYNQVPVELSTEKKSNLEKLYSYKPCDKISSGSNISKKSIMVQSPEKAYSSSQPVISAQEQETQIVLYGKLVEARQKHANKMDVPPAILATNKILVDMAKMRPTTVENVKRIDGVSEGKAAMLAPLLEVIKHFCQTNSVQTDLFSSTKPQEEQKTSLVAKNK
Bifunctional 3'-5' exonuclease/ATP-dependent helicase WRN, sequence (Q14191 whole entry): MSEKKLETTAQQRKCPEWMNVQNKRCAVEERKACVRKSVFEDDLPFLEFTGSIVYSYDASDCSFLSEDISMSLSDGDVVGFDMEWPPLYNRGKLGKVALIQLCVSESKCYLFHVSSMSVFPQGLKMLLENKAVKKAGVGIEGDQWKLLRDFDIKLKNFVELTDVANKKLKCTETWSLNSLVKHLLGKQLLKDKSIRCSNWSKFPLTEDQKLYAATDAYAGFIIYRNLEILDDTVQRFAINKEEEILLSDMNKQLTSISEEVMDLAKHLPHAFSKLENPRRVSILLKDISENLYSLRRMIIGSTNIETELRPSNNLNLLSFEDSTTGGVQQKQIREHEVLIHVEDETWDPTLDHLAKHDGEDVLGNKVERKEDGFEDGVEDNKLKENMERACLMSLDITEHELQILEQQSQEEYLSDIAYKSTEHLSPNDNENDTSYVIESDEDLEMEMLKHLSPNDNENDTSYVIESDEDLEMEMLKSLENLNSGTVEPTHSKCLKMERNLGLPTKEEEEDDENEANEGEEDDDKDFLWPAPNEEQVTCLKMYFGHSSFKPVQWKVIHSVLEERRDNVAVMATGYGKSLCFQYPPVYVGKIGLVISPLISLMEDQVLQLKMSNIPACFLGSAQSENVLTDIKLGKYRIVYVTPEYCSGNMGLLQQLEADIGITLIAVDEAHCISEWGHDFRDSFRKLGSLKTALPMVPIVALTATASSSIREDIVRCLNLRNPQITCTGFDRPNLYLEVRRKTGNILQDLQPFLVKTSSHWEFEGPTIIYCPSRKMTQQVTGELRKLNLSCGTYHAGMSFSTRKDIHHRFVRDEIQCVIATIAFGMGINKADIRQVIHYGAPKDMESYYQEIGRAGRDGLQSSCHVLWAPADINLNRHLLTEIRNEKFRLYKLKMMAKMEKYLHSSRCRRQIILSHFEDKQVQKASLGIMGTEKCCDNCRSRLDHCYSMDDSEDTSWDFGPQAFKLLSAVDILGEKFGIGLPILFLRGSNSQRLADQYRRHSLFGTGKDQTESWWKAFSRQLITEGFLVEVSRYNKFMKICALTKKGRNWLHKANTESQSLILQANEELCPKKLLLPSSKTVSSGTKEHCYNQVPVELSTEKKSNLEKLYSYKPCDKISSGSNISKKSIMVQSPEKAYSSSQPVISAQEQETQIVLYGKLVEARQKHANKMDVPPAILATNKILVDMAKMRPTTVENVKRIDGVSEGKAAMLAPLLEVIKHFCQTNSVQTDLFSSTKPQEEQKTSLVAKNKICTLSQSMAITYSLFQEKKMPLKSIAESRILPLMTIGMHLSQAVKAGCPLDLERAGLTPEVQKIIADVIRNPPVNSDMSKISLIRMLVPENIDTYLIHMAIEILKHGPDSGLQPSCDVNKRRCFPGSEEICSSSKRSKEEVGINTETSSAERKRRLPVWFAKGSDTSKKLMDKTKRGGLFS

In general, pIC50 refers to the negative decadic logarithm of the IC50, by convention in mol/L. Read a low pIC50 as a high IC50. Turning to `CCc1c(N2CCN(C(=O)c3ncnc(C)c3O)CC2)c(=O)n2nc(-c3cccc4c3OCCO4)nc2n1CC(=O)Nc1c(Cl)cc(C(F)(F)F)c2c1CC2` [WO2025049746, Example 388], the pIC50 in assay [1] was 7.24; in assay [2] it was 7.06.

For the molecule `CCc1c(N2CCN(C(=O)c3ncnc(C)c3O)CC2)c(=O)n2nc(-c3cccc4c3CCOC4)nc2n1CC(=O)Nc1c(Cl)cc(C(F)(F)F)c2c1CC2` [WO2025049746, Example 389], the pIC50 in assay [1] was 6.86; in assay [2], 5.93.

As for `CCc1c(N2CCN(C(=O)c3ncnc(C)c3O)CC2)c(=O)n2nc(-c3cccc4c3COCC4)nc2n1CC(=O)Nc1c(Cl)cc(C(F)(F)F)c2c1CC2` [WO2025049746, Example 390], the pIC50 was 7.28 in assay [1] and 7.08 in assay [2].

On to `CCc1c(N2CCN(C(=O)c3ncnc(C)c3O)CC2)c(=O)n2nc(N3CCC3)nc2n1CC(=O)Nc1c(Cl)cc(C(F)(F)F)c2c1CC2` [WO2025049746, Example 391], for which the pIC50 in assay [1] was 7.09; in assay [2], 7.03.

With `CCc1c(N2CCN(C(=O)c3ncnc(C)c3O)CC2)c(=O)n2nc(N(C)C)nc2n1CC(=O)Nc1ccc(SC(F)(F)F)cc1` [WO2025049746, Example 392], the pIC50 in assay [1] is 6.40; in assay [2] it was 6.33.

For the molecule `CCc1c(N2CCN(C(=O)c3ncnc(C)c3O)CC2)c(=O)n2nc(-c3ccc4c(c3)CCOC4)nc2n1CC(=O)Nc1ccc(SC(F)(F)F)cc1` [WO2025049746, Example 393], the pIC50 in assay [1] is 6.38; in assay [2] it was 6.30.

Turning to `CCc1c(N2CCN(C(=O)c3ncnc(C)c3O)CC2)c(=O)n2nc(-c3cccc4c3OCO4)nc2n1CC(=O)Nc1ccc(SC(F)(F)F)cc1` [WO2025049746, Example 394], the pIC50 in assay [1] was 6.23; in assay [2] it was 6.12.

Take `CCc1c(N2CCN(C(=O)c3ncnc(C)c3O)CC2)c(=O)n2nc(-c3ccc4c(c3)CCOC4)nc2n1CC(=O)Nc1ccc(SC(F)(F)F)cc1Cl` [WO2025049746, Example 395]: the results for the pIC50 in assay [1] and in assay [2] were 7.46 and 7.37, respectively.

With `CCc1c(N2CCN(C(=O)c3ncnc(C)c3O)CC2)c(=O)n2nc(N(C)C)nc2n1CC(=O)Nc1ccc(SC(F)(F)F)cc1Cl` [WO2025049746, Example 396], the pIC50 in assay [1] was 7.44; in assay [2], 7.38.

On to `CCc1c(N2CCN(C(=O)c3ncnc(C)c3O)CC2)c(=O)n2nc(-c3ccc4c(c3)CCOC4)nc2n1CC(=O)Nc1ccc(OC(F)(F)Cl)cc1` [WO2025049746, Example 398], for which the pIC50 in assay [1] is 7.47; in assay [2], 7.37.

With `CCc1c(N2CCN(C(=O)c3ncnc(C)c3O)CC2)c(=O)n2nc(-c3cccc4c3OCCO4)nc2n1CC(=O)Nc1ccc(SC(F)(F)F)cc1Cl` [WO2025049746, Example 399], the pIC50 in assay [1] was 6.94; in assay [2], 6.85.

Take `CCc1c(N2CCN(C(=O)c3ncnc(C)c3O)CC2)c(=O)n2nc(-c3cccc4c3OCO4)nc2n1CC(=O)Nc1ccc(SC(F)(F)F)cc1Cl` [WO2025049746, Example 400]: the results for the pIC50 in assay [1] and in assay [2] were 6.99 and 6.89, respectively.

For the molecule `CCc1c(N2CCN(C(=O)c3ncnc(C)c3O)CC2)c(=O)n2nc(N(C)C)nc2n1C(F)(F)C(=O)Nc1ccc(C(F)(F)F)cc1Cl` [WO2025049746, Example 401], the pIC50 in assay [1] was 7.35; in assay [2] it was 7.23.

Regarding `CCc1c(N2CCN(C(=O)c3ncnc(C)c3O)CC2)c(=O)n2nc(-c3ccc4c(c3)CCOC4)nc2n1C(F)(F)C(=O)Nc1ccc(C(F)(F)F)cc1Cl` [WO2025049746, Example 402], the pIC50 was 7.59 in assay [1] and 7.49 in assay [2].

In the case of `CCc1c(N2CCN(C(=O)c3ncnc(C)c3O)CC2)c(=O)n2nc(-c3ccc4c(c3)CCO4)nc2n1CC(=O)Nc1ccc(Cl)c(OC(F)F)c1Cl` [WO2025049746, Example 405], the pIC50 in assay [1] was 7.46; in assay [2], 7.36.

In the case of `CCc1c(N2CCN(C(=O)c3ncnc(C)c3O)CC2)c(=O)n2nc(-c3ccc4c(c3)CCOC4)nc2n1CC(=O)Nc1ccc(Cl)c(OC(F)F)c1Cl` [WO2025049746, Example 406], the pIC50 in assay [1] is 7.44; in assay [2] it was 7.34.

Regarding `CCc1c(N2CCN(C(=O)c3ncnc(C)c3O)CC2)c(=O)n2nc(-c3ccc4c(c3)COC4)nc2n1CC(=O)Nc1ccc(Cl)c(OC(F)F)c1Cl` [WO2025049746, Example 407], the pIC50 in assay [1] is 7.60; in assay [2] it was 7.52.

Take `CCc1c(N2CCN(C(=O)c3cc(C(C)C)c(O)cc3O)CC2)c(=O)n2nc(-c3ccc4c(c3)COC4)nc2n1CC(=O)Nc1ccc(C(F)(F)F)cc1Cl` [WO2025049746, Example 408]: the pIC50 in assay [1] is 5.92; in assay [2], 5.90.

Turning to `CCc1c(N2CCN(C(=O)c3ncnc(C)c3O)CC2)c(=O)n2nc(-c3ccc4c(c3)COC4)nc2n1CC(=O)Nc1ccc(SC(F)(F)F)cc1Cl` [WO2025049746, Example 409], the pIC50 in assay [1] was 7.60; in assay [2], 7.51.

In the case of `CCc1c(N2CCN(C(=O)c3ncnc(C)c3O)CC2)c(=O)n2nc(-c3ccc4c(c3)CCO4)nc2n1CC(=O)Nc1ccc(SC(F)(F)F)cc1Cl` [WO2025049746, Example 410], the figures for the pIC50 in assay [1] and in assay [2] were 7.49 and 7.39, respectively.

Consider `CCc1c(N2CCN(C(=O)c3ncnc(C)c3O)CC2)c(=O)n2nc(-c3cccc4c3OCCO4)nc2n1CC(=O)Nc1ccc(SC(F)(F)F)cc1` [WO2025049746, Example 411], for which the pIC50 is 6.63 in assay [1] and 6.38 in assay [2].

Take `CCc1c(N2CCN(C(=O)c3ncnc(N4CC(F)(F)C4)c3O)CC2)c(=O)n2nc(-c3ccc4c(c3)COC4)nc2n1CC(=O)Nc1ccc(C(F)(F)F)cc1Cl` [WO2025049746, Example 412]: the pIC50 in assay [1] was 7.54; in assay [2] it was 7.43.

With `CCc1c(N2CCN(C(=O)c3cc(C)c(O)cc3O)CC2)c(=O)n2nc(-c3ccc4c(c3)COC4)nc2n1CC(=O)Nc1ccc(C(F)(F)F)cc1Cl` [WO2025049746, Example 413], the pIC50 in assay [1] was 6.52; in assay [2] it was 6.41.

As for `CCc1c(N2CCN(C(=O)c3ncnc(C)c3O)CC2)c(=O)n2nc(-c3ccc4c(c3)COC4)nc2n1CC(=O)Nc1c(Cl)cc(C(F)(F)F)cc1OC1CC1` [WO2025049746, Example 414], the pIC50 is 5.95 in assay [1] and 5.63 in assay [2].

For the molecule `CCc1c(N2CCN(C(=O)c3ncnc(N4CC(OC)C4)c3O)CC2)c(=O)n2nc(-c3ccc4c(c3)COC4)nc2n1CC(=O)Nc1ccc(C(F)(F)F)cc1Cl` [WO2025049746, Example 415], the pIC50 in assay [1] is 9.00; in assay [2], 8.52.

Turning to `CCc1c(N2CCN(C(=O)c3ncnc(C)c3O)CC2)c(=O)n2nc(-c3ccc4c(c3)COC4)nc2n1CC(=O)Nc1ccc(C(F)(F)F)cc1OC1CC1` [WO2025049746, Example 416], the pIC50 was 6.80 in assay [1] and 6.41 in assay [2].

As to `CCc1c(N2CCN(C(=O)c3nc4c(cc3O)CCC4)CC2)c(=O)n2nc(-c3ccc4c(c3)COC4)nc2n1CC(=O)Nc1ccc(C(F)(F)F)cc1Cl` [WO2025049746, Example 417], the pIC50 was 7.08 in assay [1] and 6.97 in assay [2].

In the case of `CCc1c(N2CCN(C(=O)c3ncnc(C)c3O)CC2)c(=O)n2nc(-c3ccc4c(c3)COC4)nc2n1CC(=O)Nc1cc(C2CC2)c(C(F)(F)F)cc1Cl` [WO2025049746, Example 418], the results for the negative-log IC50 (pIC50) in assay [1] and in assay [2] were 7.24 and 7.18, respectively.

In the case of `C=C(c1ccc(NC(=O)Cn2c(CC)c(N3CCN(C(=O)c4ncnc(C)c4O)CC3)c(=O)n3nc(-c4ccc5c(c4)COC5)nc23)c(Cl)c1)C(F)(F)F` [WO2025049746, Example 419], the pIC50 is 7.41 in assay [1] and 7.27 in assay [2].

Regarding `CCc1c(N2CCN(C(=O)c3ncnc(C)c3O)CC2)c(=O)n2nc(-c3ccc4c(c3)COC4)nc2n1CC(=O)Nc1ccc(C2(C(F)(F)F)CC2)cc1Cl` [WO2025049746, Example 420], the pIC50 is 7.19 in assay [1] and 7.00 in assay [2].

Regarding `CCc1c(N2CCN(C(=O)c3ncnc(C)c3O)CC2)c(=O)n2nc(-c3ccc4c(c3)COC4)nc2n1CC(=O)Nc1ccc(C=C(F)F)cc1Cl` [WO2025049746, Example 421], the results for the pIC50 in assay [1] and in assay [2] were 7.60 and 7.52, respectively.

In the case of `CCc1c(N2CCN(C(=O)c3nc4n(c(=O)c3O)CCC4)CC2)c(=O)n2nc(-c3ccc4c(c3)COC4)nc2n1CC(=O)Nc1ccc(C(F)(F)F)cc1Cl` [WO2025049746, Example 422], the pIC50 in assay [1] is 7.42; in assay [2], 7.33.

With `CCc1c(N2CCN(C(=O)c3nc4c(cc3O)CCCC4)CC2)c(=O)n2nc(-c3ccc4c(c3)COC4)nc2n1CC(=O)Nc1ccc(C(F)(F)F)cc1Cl` [WO2025049746, Example 423], the pIC50 is 6.82 in assay [1] and 6.77 in assay [2].

As to `CCc1c(N2CCN(C(=O)c3ncnc(C)c3O)CC2)c(=O)n2nc(-c3ccc4c(c3)COC4)nc2n1CC(=O)Nc1c(Cl)cc(C(F)(F)F)c2scnc12` [WO2025049746, Example 424], the pIC50 in assay [1] was 7.43; in assay [2], 7.33.

For `CCc1c(N2CCN(C(=O)c3cccc4c3NS(=O)(=O)CC4)CC2)c(=O)n2nc(-c3ccc4c(c3)COC4)nc2n1CC(=O)Nc1ccc(C(F)(F)F)cc1Cl` [WO2025049746, Example 425], the pIC50 in assay [1] is 7.57; in assay [2], 7.47.

In the case of `CCc1c(N2CCN(C(=O)c3cccc4c3NS(=O)(=O)C=C4)CC2)c(=O)n2nc(-c3ccc4c(c3)COC4)nc2n1CC(=O)Nc1ccc(C(F)(F)F)cc1Cl` [WO2025049746, Example 426], the pIC50 in assay [1] was 7.60; in assay [2] it was 7.47.

Take `CCc1c(N2CCN(C(=O)c3nc4n(c(=O)c3O)CCCC4)CC2)c(=O)n2nc(-c3ccc4c(c3)COC4)nc2n1CC(=O)Nc1ccc(C(F)(F)F)cc1Cl` [WO2025049746, Example 427]: the pIC50 in assay [1] and in assay [2] was 7.72 throughout.

Take `CCc1c(N2CCN(C(=O)c3ncnc(C)c3O)CC2)c(=O)n2nc(-c3ccc4c(c3)CCO4)nc2n1CC(=O)Nc1c(Cl)cc(C(F)(F)F)c2scnc12` [WO2025049746, Example 428]: the pIC50 in assay [1] is 7.42; in assay [2], 7.35.
